The test has as its target T1, 5-hydroxytryptamine receptor 2C (Homo sapiens, UniProt P28335).
T1 sequence (P28335 whole entry): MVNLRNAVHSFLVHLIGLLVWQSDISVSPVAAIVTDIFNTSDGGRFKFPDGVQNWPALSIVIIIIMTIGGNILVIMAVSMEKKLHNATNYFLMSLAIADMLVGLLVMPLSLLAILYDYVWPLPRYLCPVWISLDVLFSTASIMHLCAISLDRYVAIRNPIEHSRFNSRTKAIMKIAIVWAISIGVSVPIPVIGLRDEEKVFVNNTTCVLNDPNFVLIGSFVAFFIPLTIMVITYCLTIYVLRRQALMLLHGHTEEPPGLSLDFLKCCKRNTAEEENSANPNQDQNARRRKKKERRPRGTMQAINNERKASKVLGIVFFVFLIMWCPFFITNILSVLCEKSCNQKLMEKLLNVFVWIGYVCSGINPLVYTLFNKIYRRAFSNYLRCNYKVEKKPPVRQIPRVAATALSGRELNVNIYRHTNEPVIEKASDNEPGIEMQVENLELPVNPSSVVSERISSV
The test is described as follows: 5-HT2C Receptor Binding Test. The procedure: 50 μg of the receptor membrane protein 5-HT2C was added to all the tubes. […] All the tubes were added with 40 μL of [3H]-LSD (lysergic acid diethylamide), respectively. […] The filter paper was taken out and dried by baking, and then placed in a scintillation bottle. 1 mL of the scintillation liquid was added, and the radioactive intensity was measured by a liquid scintillation counter

In general, IC50 refers to the concentration that gives 50% inhibition. A higher IC50 goes with weaker potency in that assay. In turn, `COc1cc2c(CCNC(C)=O)cccc2cc1Cl` [US11980598, Compound 1] registered an IC50 of 0.77 nM.

`COc1cc2c(CCNC(C)=O)cccc2cc1F` [US11980598, Compound 4] yielded an IC50 of 20.8 nM.
